Experimental data published in patent US5840684A, “Glycopeptide antibiotic derivatives” (Eli Lilly and Company, priority 1995, dated 1998).
≈ marks a conversion by molar mass, not a printed value.

Experiments:
[1] = test system: Entercoccus faecium 180-1; experiment: broth micro-dilution MIC; type: cell-based
Description: (§1) The MIC's were determined using a standard broth micro-dilution assay.

Entercoccus faecium 276 = experiment: broth micro-dilution MIC; type: cell-based
Description: as §1

[2] = test system: Staphylococcus aureus 447; experiment: broth micro-dilution MIC; type: cell-based
Description: as §1

[3] = test system: Staphylococcus aureus 489; experiment: broth micro-dilution MIC; type: cell-based
Description: as §1

[4] = test system: Staphylococcus aureus SA1199; experiment: broth micro-dilution MIC; type: cell-based
Description: as §1

[5] = test system: Streptococcus pyogenes C203; experiment: broth micro-dilution MIC; type: cell-based
Description: as §1

Entercoccus faecium 180 = experiment: broth micro-dilution MIC; type: cell-based; details: Entercoccus faecium 180
Description: (§2) The formula I compounds have in vitro and in vivo activity against Gram-positive pathogenic bacteria. The MIC's were determined using a standard broth micro-dilution assay.

Entercoccus faecium 2041 = experiment: broth micro-dilution MIC; type: cell-based; details: Entercoccus faecium 2041
Description: as §2

[6] = test system: Enterococcus gallinarum 245; experiment: broth micro-dilution MIC; type: cell-based; details: Enterococcus gallinarum 245
Description: as §2

[7] = test system: Staphylococcus haemolyticus 105; experiment: broth micro-dilution MIC; type: cell-based
Description: as §2

[8] = test system: Staphylococcus haemolyticus 415; experiment: broth micro-dilution MIC; type: cell-based
Description: as §2

[9] = test system: Streptococcus pneumoniae P1; experiment: broth micro-dilution MIC; type: cell-based
Description: as §2

[10] = test system: vancomycin-resistant enterococci; experiment: broth micro-dilution, mean geometric MIC; type: cell-based, Enterococcus faecium and Enterococcus faecalis; details: enterococci, 24-hour incubation
[11] = test system: Staphylococcus aureus SA1199B; type: cell-based
Description: as §1

[12] = test system: Staphylococcus aureus 446; experiment: broth micro-dilution MIC; type: cell-based
Description: as §1

[13] = test system: Staphylococcus aureus X400; experiment: broth micro-dilution MIC; type: cell-based
Description: as §1

[14] = test system: Staphylococcus epidermidis 270; experiment: broth micro-dilution MIC; type: cell-based
Description: as §2

[15] = test system: vancomycin-susceptible enterococci; experiment: broth micro-dilution, mean geometric MIC; type: cell-based, Enterococcus faecium and Enterococcus faecalis; details: enterococci, 24-hour incubation
[16] = test system: Staphylococcus aureus S13E; type: cell-based
Description: as §1

[17] = test system: Staphylococcus aureus X778; experiment: broth micro-dilution MIC; type: cell-based
Description: as §1

[18] = test system: Staphylococcus aureus SA1199A; experiment: broth micro-dilution MIC; type: cell-based
Description: as §1

SMILES | MIC [1] | MIC (Entercoccus faecium 276) | MIC [2] | MIC [3] | MIC [5] | MIC (Entercoccus faecium 180) | MIC (Entercoccus faecium 2041) | MIC [6] | MIC [7] | MIC [8] | MIC [9] | mean geometric MIC, Vancomycin Resistant Strains [10] | MIC [11] | MIC [12] | MIC [13] | MIC [14] | mean geometric MIC, Vancomycin Sensitive Strains [15] | MIC [16] | MIC [17] | MIC [18] | other results
CNC(CC(C)C)C(=O)NC1C(=O)NC(CC(N)=O)C(=O)NC2C(=O)NC3C(=O)NC(C(=O)NC(C(=O)O)c4cc(O)cc(O)c4-c4cc3ccc4O)C(OC3CC(C)(N)C(O)C(C)O3)c3ccc(c(Cl)c3)Oc3cc2cc(c3OC2OC(CO)C(O)C(O)C2OC2CC(C)(NCc3ccc(C)c(C)c3)C(O)C(C)O2)Oc2ccc(cc2Cl)C1O (stereo not drawn) [Compound 76] | ≤ 0.06 µg/mL | ≤ 0.06 µg/mL | 0.5 µg/mL (≈ 0.292 µM) | ≤ 0.06 µg/mL | ≤ 0.06 µg/mL | 0.5 µg/mL (≈ 0.292 µM) | ≤ 0.06 µg/mL | 4 µg/mL (≈ 2.34 µM) | 2 µg/mL (≈ 1.17 µM) | 4 µg/mL (≈ 2.34 µM) | ≤ 0.06 µg/mL | 8.0 µg/mL | – | – | – | – | – | – | – | – | MIC [4]: ≤ 0.06 µg/mL
CNC(CC(C)C)C(=O)NC1C(=O)NC(CC(N)=O)C(=O)NC2C(=O)NC3C(=O)NC(C(=O)NC(C(=O)O)c4cc(O)cc(O)c4-c4cc3ccc4O)C(OC3CC(C)(N)C(O)C(C)O3)c3ccc(c(Cl)c3)Oc3cc2cc(c3OC2OC(CO)C(O)C(O)C2OC2CC(C)(NCCc3ccc(Oc4ccccc4)cc3)C(O)C(C)O2)Oc2ccc(cc2Cl)C1O (stereo not drawn) [Compound 63] | ≤ 0.06 µg/mL | 0.5 µg/mL (≈ 0.28 µM) | 1 µg/mL (≈ 0.559 µM) | 8 µg/mL (≈ 4.47 µM) | ≤ 0.06 µg/mL | – | – | 8 µg/mL (≈ 4.47 µM) | 4 µg/mL (≈ 2.24 µM) | 8 µg/mL (≈ 4.47 µM) | ≤ 0.06 µg/mL | 54 µg/mL | 0.5 µg/mL (≈ 0.28 µM) | 0.5 µg/mL (≈ 0.28 µM) | ≤ 0.06 µg/mL | 1 µg/mL (≈ 0.559 µM) | 0.66 µg/mL | – | – | – | –
CNC(CC(C)C)C(=O)NC1C(=O)NC(CC(N)=O)C(=O)NC2C(=O)NC3C(=O)NC(C(=O)NC(C(=O)O)c4cc(O)cc(O)c4-c4cc3ccc4O)C(OC3CC(C)(N)C(O)C(C)O3)c3ccc(c(Cl)c3)Oc3cc2cc(c3OC2OC(CO)C(O)C(O)C2OC2CC(C)(NCc3ccc(Cl)c(C(=O)c4ccccc4)c3Cl)C(O)C(C)O2)Oc2ccc(cc2Cl)C1O (stereo not drawn) [Compound 133] | ≤ 0.06 µg/mL | 1 µg/mL (≈ 0.539 µM) | 1 µg/mL (≈ 0.539 µM) | 1 µg/mL (≈ 0.539 µM) | ≤ 0.06 µg/mL | 1 µg/mL (≈ 0.539 µM) | – | 2 µg/mL (≈ 1.08 µM) | 2 µg/mL (≈ 1.08 µM) | 2 µg/mL (≈ 1.08 µM) | ≤ 0.06 µg/mL | 4.0 µg/mL | 2 µg/mL (≈ 1.08 µM) | 2 µg/mL (≈ 1.08 µM) | 0.5 µg/mL (≈ 0.269 µM) | 1 µg/mL (≈ 0.539 µM) | 0.13 µg/mL | 1 µg/mL (≈ 0.539 µM) | 2 µg/mL (≈ 1.08 µM) | – | –
CNC(CC(C)C)C(=O)NC1C(=O)NC(CC(N)=O)C(=O)NC2C(=O)NC3C(=O)NC(C(=O)NC(C(=O)O)c4cc(O)cc(O)c4-c4cc3ccc4O)C(OC3CC(C)(N)C(O)C(C)O3)c3ccc(c(Cl)c3)Oc3cc2cc(c3OC2OC(CO)C(O)C(O)C2OC2CC(C)(NCc3ccc(Nc4ccccc4)cc3)C(O)C(C)O2)Oc2ccc(cc2Cl)C1O (stereo not drawn) [Compound 160] | ≤ 0.06 µg/mL | 2 µg/mL (≈ 1.13 µM) | 1 µg/mL (≈ 0.564 µM) | 0.21 µg/mL (≈ 0.118 µM) | ≤ 0.06 µg/mL | 0.5 µg/mL (≈ 0.282 µM) | ≤ 0.06 µg/mL | 8 µg/mL (≈ 4.51 µM) | 8 µg/mL (≈ 4.51 µM) | 8 µg/mL (≈ 4.51 µM) | ≤ 0.06 µg/mL | 9.5 µg/mL | ≤ 0.06 µg/mL | 2 µg/mL (≈ 1.13 µM) | 4 µg/mL (≈ 2.26 µM) | 1 µg/mL (≈ 0.564 µM) | 0.22 µg/mL | 1 µg/mL (≈ 0.564 µM) | 4 µg/mL (≈ 2.26 µM) | – | –
CNC(CC(C)C)C(=O)NC1C(=O)NC(CC(N)=O)C(=O)NC2C(=O)NC3C(=O)NC(C(=O)NC(C(=O)O)c4cc(O)cc(O)c4-c4cc3ccc4O)C(OC3CC(C)(N)C(O)C(C)O3)c3ccc(c(Cl)c3)Oc3cc2cc(c3OC2OC(CO)C(O)C(O)C2OC2CC(C)(NCCc3ccc(Oc4ccccc4)cc3)C(O)C(C)O2)Oc2ccc(cc2Cl)C1O (stereo not drawn) [Compound 33] | ≤ 0.06 µg/mL | ≤ 0.06 µg/mL | – | ≤ 0.06 µg/mL | – | 2 µg/mL (≈ 1.12 µM) | ≤ 0.06 µg/mL | – | 2 µg/mL (≈ 1.12 µM) | 8 µg/mL (≈ 4.47 µM) | – | 2.8 µg/mL | – | 4 µg/mL (≈ 2.24 µM) | – | 2 µg/mL (≈ 1.12 µM) | 0.18 µg/mL | ≤ 0.06 µg/mL | 0.5 µg/mL (≈ 0.28 µM) | ≤ 0.06 µg/mL | MIC [4]: 1 µg/mL (≈ 0.559 µM)
CNC(CC(C)C)C(=O)NC1C(=O)NC(CC(N)=O)C(=O)NC2C(=O)NC3C(=O)NC(C(=O)NC(C(=O)O)c4cc(O)cc(O)c4-c4cc3ccc4O)C(OC3CC(C)(N)C(O)C(C)O3)c3ccc(c(Cl)c3)Oc3cc2cc(c3OC2OC(CO)C(O)C(O)C2OC2CC(C)(NCc3ccc(Oc4ccc(Cl)cc4)cc3)C(O)C(C)O2)Oc2ccc(cc2Cl)C1O (stereo not drawn) [Compound 240] | ≤ 0.06 µg/mL | 0.5 µg/mL (≈ 0.276 µM) | 0.5 µg/mL (≈ 0.276 µM) | 1 µg/mL (≈ 0.553 µM) | – | ≤ 0.06 µg/mL | ≤ 0.06 µg/mL | 2 µg/mL (≈ 1.11 µM) | 1 µg/mL (≈ 0.553 µM) | 2 µg/mL (≈ 1.11 µM) | ≤ 0.06 µg/mL | 1.19 µg/mL | – | 1 µg/mL (≈ 0.553 µM) | – | – | 0.055 µg/mL | 0.5 µg/mL (≈ 0.276 µM) | 0.5 µg/mL (≈ 0.276 µM) | ≤ 0.06 µg/mL | MIC [4]: 0.5 µg/mL (≈ 0.276 µM)
CNC(CC(C)C)C(=O)NC1C(=O)NC(CC(N)=O)C(=O)NC2C(=O)NC3C(=O)NC(C(=O)NC(C(=O)O)c4cc(O)cc(O)c4-c4cc3ccc4O)C(OC3CC(C)(N)C(O)C(C)O3)c3ccc(c(Cl)c3)Oc3cc2cc(c3OC2OC(CO)C(O)C(O)C2OC2CC(C)(NCC3=CCC(C(C)C)CC3)C(O)C(C)O2)Oc2ccc(cc2Cl)C1O (stereo not drawn) [Compound 171] | ≤ 0.06 µg/mL | 0.125 µg/mL (≈ 0.0723 µM) | 1 µg/mL (≈ 0.578 µM) | 0.5 µg/mL (≈ 0.289 µM) | ≤ 0.06 µg/mL | 1 µg/mL (≈ 0.578 µM) | ≤ 0.06 µg/mL | 8 µg/mL (≈ 4.63 µM) | 4 µg/mL (≈ 2.31 µM) | 8 µg/mL (≈ 4.63 µM) | ≤ 0.06 µg/mL | 9.5 µg/mL | – | 1 µg/mL (≈ 0.578 µM) | ≤ 0.06 µg/mL | 1 µg/mL (≈ 0.578 µM) | 0.22 µg/mL | ≤ 0.06 µg/mL | ≤ 0.06 µg/mL | ≤ 0.06 µg/mL | –
CNC(CC(C)C)C(=O)NC1C(=O)NC(CC(N)=O)C(=O)NC2C(=O)NC3C(=O)NC(C(=O)NC(C(=O)O)c4cc(O)cc(O)c4-c4cc3ccc4O)C(OC3CC(C)(N)C(O)C(C)O3)c3ccc(c(Cl)c3)Oc3cc2cc(c3OC2OC(CO)C(O)C(O)C2OC2CC(C)(NCC3CCC(COCc4ccccc4)CC3)C(O)C(C)O2)Oc2ccc(cc2Cl)C1O (stereo not drawn) [Compound 239] | ≤ 0.06 µg/mL | – | 0.5 µg/mL (≈ 0.276 µM) | 0.5 µg/mL (≈ 0.276 µM) | – | ≤ 0.06 µg/mL | ≤ 0.06 µg/mL | 1 µg/mL (≈ 0.553 µM) | 1 µg/mL (≈ 0.553 µM) | 1 µg/mL (≈ 0.553 µM) | ≤ 0.06 µg/mL | 2.8 µg/mL | 0.5 µg/mL (≈ 0.276 µM) | 1 µg/mL (≈ 0.553 µM) | – | – | 0.095 µg/mL | 0.5 µg/mL (≈ 0.276 µM) | – | ≤ 0.06 µg/mL | MIC [4]: 0.5 µg/mL (≈ 0.276 µM)
CCOc1ccc2ccccc2c1CNC1(C)CC(OC2C(Oc3c4cc5cc3Oc3ccc(cc3Cl)C(OC3CC(C)(N)C(O)C(C)O3)C3NC(=O)C(NC(=O)C5NC(=O)C(CC(N)=O)NC(=O)C(NC(=O)C(CC(C)C)NC)C(O)c5ccc(c(Cl)c5)O4)c4ccc(O)c(c4)-c4c(O)cc(O)cc4C(C(=O)O)NC3=O)OC(CO)C(O)C2O)OC(C)C1O (stereo not drawn) [Compound 60] | ≤ 0.06 µg/mL | 0.5 µg/mL (≈ 0.281 µM) | 2 µg/mL (≈ 1.13 µM) | 0.5 µg/mL (≈ 0.281 µM) | – | 4 µg/mL (≈ 2.25 µM) | – | 16 µg/mL (≈ 9.01 µM) | – | 16 µg/mL (≈ 9.01 µM) | ≤ 0.06 µg/mL | 19 µg/mL | 0.5 µg/mL (≈ 0.281 µM) | 1 µg/mL (≈ 0.563 µM) | 0.5 µg/mL (≈ 0.281 µM) | 2 µg/mL (≈ 1.13 µM) | 3.0 µg/mL | – | – | ≤ 0.06 µg/mL | –
